# US20240400554A1, “MONOACYLGLYCEROL LIPASE (MAGL) INHIBITORS FOR THE TREATMENT OF PAIN AND RELATED MEDICAL DISORDERS” (Humanwell Pharmaceutical US, Inc., priority 2023, published 2024)
# Legend:
# [1] = system: 2% formalin model in SD rats; test: Formalin-induced pain model; format: in vivo; conditions: 3 mg/kg p.o.; for inhibition in vivo at 3 mg/kg: Rattus norvegicus, po, 1 h, movements (lifts and licks) 0-60 min after formalin, read-out: MPE % (Maximum Possible Effect)
# Description: A diluted formalin solution is injected subcutaneously into the hind paw of rats using a microsyringe, creating a continuous noxious stimulus that induces spontaneous pain behaviors in the animals. The experiment can record the number of lifts and licks of the rat's foot through an autonomous movement analyzer to assess the degree of pain. This experiment uses a 2% formalin model in SD rats and tests the analgesic activity of compounds by oral administration. After injecting 2% formalin, the number of movements (lifts and licks of the injected foot) from 0-60 min after injecting the formalin solution is recorded and analyzed.
# The Maximum Possible Effect (MPE %) is calculated as a percentage:
# Note: (1) MPE % for each group is calculated with sham group MPE=100% and vehicle group MPE=0% as standards. (2) Movement counts of the sham group are subtracted to exclude the impact of background noise on the experiment. (2) “Sham” represents the average value of the sham group; “Vehicle-Sham” represents the average value of the vehicle group minus the sham group.
# Results are presented as mean values with standard error. Data from each group are analyzed and graphed using GraphPad Prism 8 software. Statistical analysis is conducted using one-way ANOVA to determine statistical differences between groups, with t-tests used for comparisons between two groups. A p-value <0.05 is considered statistically significant.
# [2] = biological target: T1, human recombinant MAGL (monoacylglycerol lipase) (Homo sapiens, UniProt Q99685); test: In vitro MAGL enzyme inhibition assay (Cayman Monoacylglycerol Lipase Inhibitor Screening Assay, 4-nitrophenylacetate hydrolysis); format: biochemical; conditions: 4-nitrophenylacetate substrate, 15 min preincubation, absorbance 405-415 nm
# T1 construct: purchased Cayman Chemical Item No. 705192
# T1 sequence (Q99685 1-303): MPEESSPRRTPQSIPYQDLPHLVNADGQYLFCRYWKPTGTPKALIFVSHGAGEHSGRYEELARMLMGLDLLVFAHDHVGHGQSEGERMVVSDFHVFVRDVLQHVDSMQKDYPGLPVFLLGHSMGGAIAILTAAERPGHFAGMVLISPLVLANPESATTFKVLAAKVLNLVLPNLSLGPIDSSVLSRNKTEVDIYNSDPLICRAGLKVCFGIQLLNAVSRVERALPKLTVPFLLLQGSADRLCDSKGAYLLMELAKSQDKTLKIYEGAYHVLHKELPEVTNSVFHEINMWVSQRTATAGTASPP
# Description: Monoacylglycerol Lipase Inhibitor Screening Assay provides a convenient method for screening human MAGL inhibitors.
# Dilute 3 ml of MAGL Assay Buffer (10×) concentrate with 27 ml of ultrapure water. This final 1× Assay Buffer (10 mM Tris-HCl, pH 7.2, containing 1 mM EDTA) should be used in the assay and for the dilution of MAGL enzyme, substrate, and MAGL inhibitor. The 1× Assay Buffer is stable for at least six months if stored at −20° C.
# The vial contains 0.5 ml of 17 mM ethanolic solution of 4-nitrophenylacetate. Mix 150 μL of this solution with 450 μl of 1× Assay Buffer prior to testing. This is enough substrate to assay 50 wells. Dilute additional substrate if using the entire plate.
# This vial contains 100 μl of a solution of human recombinant MAGL (monoacylglycerol lipase). The thawed enzyme should be stored on ice. Dilute 30 μl of enzyme with 570 μl of 1×MAGL Assay Buffer. This is enough enzyme to assay 50 wells. Dilute additional enzyme if using the entire plate. The diluted enzyme is stable for four hours on ice.
# This vial contains 20 nmol of inhibitor. Resuspend in 125 μl of DMSO, then add 125 μl of 1× Assay Buffer and vortex to make an 80 μM stock.
# 1). 100% Initial Activity Wells—add 150 μl of 1× Assay Buffer, 10 μl of MAGL enzyme, and 10 μl of solvent (same solvent used to dissolve the inhibitor) to three wells.
# 2). Background Wells—add 160 μl of 1× Assay Buffer and 10 μl of solvent (same solvent used to dissolve the inhibitor) to three wells.
# 3). Inhibitor/Positive Control Wells—add 150 μl of 1× Assay Buffer, 10 μl of MAGL enzyme, and 10 μl of inhibitor* or positive control inhibitor to the inhibitor wells.
# 4). Mix the contents of the wells by pipetting gently up and down and incubate for 15 minutes at room temperature. The incubation time for different inhibitors may vary and will need to be optimized by the user.
# 5). Initiate the reactions by adding 10 μl of MAGL Substrate to all the wells being used. Carefully shake the 96-well plate for 10 seconds to mix and cover with the plate cover. Incubate for ten minutes at room temperature.
# 6). […] (Tecan Spark 10M Multimode Plate Reader)
# 1). Determine the average absorbance of each sample.
# 2). Subtract the average absorbance of the background wells from the average absorbance of the 100% initial activity and the inhibitor wells.
# 3). Determine the percent inhibition or percent activity for each inhibitor using one of the following equations: […]
IC50 [2] [nM],Compound,Experimental Results (analgesic activity in the formalin model) [1],inhibition in vivo at 3 mg/kg [1] [%]
152,"CC(C)c1c(C2CCN(C(=O)OC(C(F)(F)F)C(F)(F)F)CC2)nn2c1CCc1cc(F)cnc1-2 [Compound 21, 1,1,1,3,3,3-hexafluoropropan-2-yl 4-(7-fluoro-3-isopropyl-4,5-dihydropyrazolo[1,5-a][1,8]naphthyridin-2-yl)piperidine-1-carboxylate]",,
83.4,"O=C(OC(CO)C(F)(F)F)N1CCC(c2cn3c(n2)CCc2cc(F)ccc2-3)CC1 (stereo not drawn) [Compound 26, 1,1,1-trifluoro-3-hydroxypropan-2-yl 4-(7-fluoro-4,5-dihydroimidazo[1,2-a]quinolin-2-yl)piperidine-1-carboxylate]",,
25.1,"O=C(OC(CO)C(F)(F)F)N1CCC(c2nc3n(c2Br)-c2ccc(F)cc2CC3)CC1 (stereo not drawn) [Compound 28, 1,1,1-trifluoro-3-hydroxypropan-2-yl 4-(1-bromo-7-fluoro-4,5-dihydroimidazo[1,2-a]quinolin-2-yl)piperidine-1-carboxylate]",,
32.7,"O=C(OC(CO)C(F)(F)F)N1CCC(c2nc3n(c2Br)-c2ncc(F)cc2CC3)CC1 (stereo not drawn) [Compound 31, 1,1,1-trifluoro-3-hydroxypropan-2-yl 4-(9-bromo-3-fluoro-5,6-dihydroimidazo[1,2-a][1,8]naphthyridin-8-yl)piperidine-1-carboxylate]",,
12.5,"CC(C)c1c(C2CCN(C(=O)OC(C(F)(F)F)C(F)(F)F)CC2)nn2c1ccc1cc(F)cnc12 [Compound 34, 1,1,1,3,3,3-hexafluoropropan-2-yl 4-(7-fluoro-3-isopropylpyrazolo[1,5-a][1,8]naphthyridin-2-yl)piperidine-1-carboxylate]",,
13.1,"O=C(OC(C(F)(F)F)C(F)(F)F)N1CCN(c2cc3n(n2)-c2ccc(F)cc2CC3)CC1 [Compound 35, 1,1,1,3,3,3-hexafluoropropan-2-yl 4-(7-fluoro-4,5-dihydropyrazolo[1,5-a]quinolin-2-yl)piperazine-1-carboxylate]",,

# More lines, now with the values behind:
Compound,IC50 [2] [nM],Experimental Results (analgesic activity in the formalin model) [1],inhibition in vivo at 3 mg/kg [1] [%]
"O=C(OC(C(F)(F)F)C(F)(F)F)N1CCN(Cc2ccc(C(F)(F)F)cc2N2CCCC2)CC1 [ABX-1431, reference compound]",,effective,33
"O=C(OC(C(F)(F)F)C(F)(F)F)N1CCC(c2cc3n(n2)-c2ccc(F)cc2CC3)CC1 [Compound 1, 1,1,1,3,3,3-hexafluoropropan-2-yl 4-(7-fluoro-4,5-dihydropyrazolo[1,5-a]quinolin-2-yl)piperidine-1-carboxylate]",< 0.1,effective,68
"O=C(OC(CO)C(F)(F)F)N1CCC(c2cc3n(n2)-c2ccc(F)cc2CC3)CC1 (stereo not drawn) [Compound 2, 1,1,1-trifluoro-3-hydroxypropan-2-yl 4-(7-fluoro-4,5-dihydropyrazolo[1,5-a]quinolin-2-yl)piperidine-1-carboxylate]",16,effective,45
"O=C(OC(CO)C(F)(F)F)N1CCC(c2nn3c(c2F)CCc2cc(F)ccc2-3)CC1 (stereo not drawn) [Compound 3, 1,1,1-trifluoro-3-hydroxypropan-2-yl 4-(3,7-difluoro-4,5-dihydropyrazolo[1,5-a]quinolin-2-yl)piperidine-1-carboxylate]",,effective,61
"O=C(OC(CO)C(F)(F)F)N1CCC(c2nn3c(c2Cl)CCc2cc(F)ccc2-3)CC1 (stereo not drawn) [Compound 4, 1,1,1-trifluoro-3-hydroxypropan-2-yl 4-(3-chloro-7-fluoro-4,5-dihydropyrazolo[1,5-a]quinolin-2-yl)piperidine-1-carboxylate]",,effective,51
"O=C(OC(CO)C(F)(F)F)N1CCC(c2nn3c(c2Br)CCc2cc(F)ccc2-3)CC1 (stereo not drawn) [Compound 5, 1,1,1-trifluoro-3-hydroxypropan-2-yl 4-(3-bromo-7-fluoro-4,5-dihydropyrazolo[1,5-a]quinolin-2-yl)piperidine-1-carboxylate]",37.1,effective,44
"Cc1c(C2CCN(C(=O)OC(CO)C(F)(F)F)CC2)nn2c1CCc1cc(F)ccc1-2 (stereo not drawn) [Compound 6, 1,1,1-trifluoro-3-hydroxypropan-2-yl 4-(7-fluoro-3-methyl-4,5-dihydropyrazolo[1,5-a]quinolin-2-yl)piperidine-1-carboxylate]",16.7,effective,44
"O=C(OC(CO)C(F)(F)F)N1CCC(c2nn3c(c2C(F)(F)F)CCc2cc(F)ccc2-3)CC1 (stereo not drawn) [Compound 7, 1,1,1-trifluoro-3-hydroxypropan-2-yl 4-(7-fluoro-3-(trifluoromethyl)-4,5-dihydropyrazolo[1,5-a]quinolin-2-yl)piperidine-1-carboxylate]",89.8,effective,56
"O=C(OC(CO)C(F)(F)F)N1CC2C(C1)C2c1cc2n(n1)-c1ccc(F)cc1CC2 (stereo not drawn) [Compound 12, 1,1,1-trifluoro-3-hydroxypropan-2-yl 6-(7-fluoro-4,5-dihydropyrazolo[1,5-a]quinolin-2-yl)-3-azabicyclo[3.1.0]hexane-3-carboxylate]",,effective,64
"O=C(OC(C(F)(F)F)C(F)(F)F)N1CCC(c2cc3n(n2)-c2ncc(F)cc2CC3)CC1 [Compound 13, 1,1,1,3,3,3-hexafluoropropan-2-yl 4-(7-fluoro-4,5-dihydropyrazolo[1,5-a][1,8]naphthyridin-2-yl)piperidine-1-carboxylate]",9.1,effective,49
"Cc1c(C2CCN(C(=O)OC(C(F)(F)F)C(F)(F)F)CC2)nn2c1CCc1cc(F)cnc1-2 [Compound 17, 1,1,1,3,3,3-hexafluoropropan-2-yl 4-(7-fluoro-3-methyl-4,5-dihydropyrazolo[1,5-a][1,8]naphthyridin-2-yl)piperidine-1-carboxylate]",126,,
"N#Cc1c(C2CCN(C(=O)OC(C(F)(F)F)C(F)(F)F)CC2)nn2c1CCc1cc(F)cnc1-2 [Compound 18, 1,1,1,3,3,3-hexafluoropropan-2-yl 4-(3-cyano-7-fluoro-4,5-dihydropyrazolo[1,5-a][1,8]naphthyridin-2-yl)piperidine-1-carboxylate]",78.3,,
"O=C(OC(C(F)(F)F)C(F)(F)F)N1CCC(c2nc3n(n2)-c2ccc(F)cc2CC3)CC1 [Compound 24, 1,1,1,3,3,3-hexafluoropropan-2-yl 4-(7-fluoro-4,5-dihydro-[1,2,4]triazolo[1,5-a]quinolin-2-yl)piperidine-1-carboxylate]",,effective,50
